# Data reported in ChEMBL document CHEMBL3885861, “Open TG-GATES”.
# Species: Rattus norvegicus
# Test: Open TG-GATES - Regimen: Single
# Format: toxicity, organism-based, Sprague-Dawley
# Design: regimen Single, gender Male, age 6 weeks
# Conditions: in vivo, po, route gavage; for APTT / Bas / Eos / Fbg / Ht / Lym / MCH / MCHC / MCV / Mono / Neu / PT / Plat / RBC / Ret / WBC: tissue Blood; for KIDNEY_L / KIDNEY_R / KIDNEY_TOTAL: tissue Kidney; for LIVER: tissue Liver; for ALP / ALT / AST / BUN / CRE / Ca / Cl / DBIL / GLC / IP / K / LDH / Na / PL / RALB / TBIL / TC / TG / TP / gamma-GTP: tissue Plasma
# [1] = 30 mg/kg, 3 h, dose level Middle
# [2] = 30 mg/kg, 6 h, dose level Middle
# [3] = 30 mg/kg, 9 h, dose level Middle
# [4] = 30 mg/kg, 24 h, dose level Middle
# [5] = 100 mg/kg, 3 h, dose level High
# [6] = 100 mg/kg, 6 h, dose level High
# [7] = 100 mg/kg, 9 h, dose level High
# [8] = 100 mg/kg, 24 h, dose level High
compound,measurement,setting,value
Cc1cccc(Nc2cc(Cl)nc(SCC(=O)O)n2)c1C [PIRINIXIC ACID],TERMINAL_BW,[1],204.3 g
same,APTT,[1],17.1 s
same,Bas,[1],0%
same,Eos,[1],0.4%
same,Fbg,[1],275 mg/dL
same,Ht,[1],39.7%
same,Lym,[1],77.6%
same,MCH,[1],21.5 pg
same,MCHC,[1],34.3%
same,MCV,[1],62.6 fL
same,Mono,[1],3%
same,Neu,[1],18%
same,PT,[1],12.5 s
same,Plat,[1],130.4 x10_4/uL
same,RBC,[1],634 x10_4/ul
same,Ret,[1],7.9%
same,WBC,[1],74.5 x10_2/uL
same,KIDNEY_L,[1],0.9 g
same,KIDNEY_R,[1],0.9 g
same,KIDNEY_TOTAL,[1],1.8 g
same,LIVER,[1],8.9 g
same,ALP,[1],1689.8 IU/L
same,ALT,[1],49.2 IU/L
same,AST,[1],74 IU/L
same,BUN,[1],9 mg/dL
same,CRE,[1],0.1 mg/dL
same,Ca,[1],11 mg/dL
same,Cl,[1],103.8 meq/L
same,DBIL,[1],0.088 mg/dL
same,GLC,[1],184.2 mg/dL
same,IP,[1],10.1 mg/dL
same,K,[1],3.9 meq/L
same,LDH,[1],65.6 IU/L
same,Na,[1],139.8 meq/L
same,PL,[1],172.4 mg/dL
same,RALB,[1],2.7 g/dL
same,TBIL,[1],0.052 mg/dL
same,TC,[1],79 mg/dL
same,TG,[1],251.8 mg/dL
same,TP,[1],5.8 g/dL
same,gamma-GTP,[1],1 IU/L
same,TERMINAL_BW,[2],205.1 g
same,APTT,[2],16.2 s
same,Bas,[2],0%
same,Eos,[2],1%
same,Fbg,[2],274.6 mg/dL
same,Ht,[2],40.3%
same,Lym,[2],70.8%
same,MCH,[2],20.8 pg
same,MCHC,[2],34.1%
same,MCV,[2],61 fL
same,Mono,[2],2.4%
same,Neu,[2],25.4%
same,PT,[2],12.4 s
same,Plat,[2],117.5 x10_4/uL
same,RBC,[2],661.2 x10_4/ul
same,Ret,[2],7.5%
same,WBC,[2],71.7 x10_2/uL
same,KIDNEY_L,[2],0.9 g
same,KIDNEY_R,[2],0.9 g
same,KIDNEY_TOTAL,[2],1.7 g
same,LIVER,[2],8.2 g
same,ALP,[2],1624.2 IU/L
same,ALT,[2],46.6 IU/L
same,AST,[2],77.8 IU/L
same,BUN,[2],8.8 mg/dL
same,CRE,[2],0.2 mg/dL
same,Ca,[2],10.7 mg/dL
same,Cl,[2],105.4 meq/L
same,DBIL,[2],0.036 mg/dL
same,GLC,[2],177.8 mg/dL
same,IP,[2],10.7 mg/dL
same,K,[2],4.3 meq/L
same,LDH,[2],59.8 IU/L
same,Na,[2],139.6 meq/L
same,PL,[2],149.4 mg/dL
same,RALB,[2],2.6 g/dL
same,TBIL,[2],0.046 mg/dL
same,TC,[2],76.4 mg/dL
same,TG,[2],115.4 mg/dL
same,TP,[2],5.4 g/dL
same,gamma-GTP,[2],1.4 IU/L
same,TERMINAL_BW,[3],204.7 g
same,APTT,[3],15.6 s
same,Bas,[3],0%
same,Eos,[3],0.6%
same,Fbg,[3],267.4 mg/dL
same,Ht,[3],38.8%
same,Lym,[3],78.8%
same,MCH,[3],21.1 pg
same,MCHC,[3],34.3%
same,MCV,[3],61.4 fL
same,Mono,[3],2%
same,Neu,[3],18%
same,PT,[3],12.3 s
same,Plat,[3],121.4 x10_4/uL
same,RBC,[3],631.6 x10_4/ul
same,Ret,[3],7.8%
same,WBC,[3],66.7 x10_2/uL
same,KIDNEY_L,[3],0.9 g
same,KIDNEY_R,[3],0.8 g
same,KIDNEY_TOTAL,[3],1.7 g
same,LIVER,[3],7.9 g
same,ALP,[3],1566.2 IU/L
same,ALT,[3],35.8 IU/L
same,AST,[3],65.8 IU/L
same,BUN,[3],9.6 mg/dL
same,CRE,[3],0.2 mg/dL
same,Ca,[3],10.5 mg/dL
same,Cl,[3],104.2 meq/L
same,DBIL,[3],0.026 mg/dL
same,GLC,[3],185.8 mg/dL
same,IP,[3],11.1 mg/dL
same,K,[3],3.9 meq/L
same,LDH,[3],61.6 IU/L
same,Na,[3],140.6 meq/L
same,PL,[3],122.8 mg/dL
same,RALB,[3],2.6 g/dL
same,TBIL,[3],0.038 mg/dL
same,TC,[3],67.8 mg/dL
same,TG,[3],68.8 mg/dL
same,TP,[3],5.3 g/dL
same,gamma-GTP,[3],1.4 IU/L
same,TERMINAL_BW,[4],211.1 g
same,APTT,[4],16.1 s
same,Bas,[4],0%
same,Eos,[4],1.2%
same,Fbg,[4],216.4 mg/dL
same,Ht,[4],39.1%
same,Lym,[4],76.2%
same,MCH,[4],21.4 pg
same,MCHC,[4],34.5%
same,MCV,[4],61.9 fL
same,Mono,[4],3%
same,Neu,[4],19.6%
same,PT,[4],13 s
same,Plat,[4],110.1 x10_4/uL
same,RBC,[4],632.4 x10_4/ul
same,Ret,[4],6.8%
same,WBC,[4],75.4 x10_2/uL
same,KIDNEY_L,[4],0.9 g
same,KIDNEY_R,[4],0.9 g
same,KIDNEY_TOTAL,[4],1.8 g
same,LIVER,[4],10.2 g
same,ALP,[4],1775.4 IU/L
same,ALT,[4],51.8 IU/L
same,AST,[4],73.4 IU/L
same,BUN,[4],14.4 mg/dL
same,CRE,[4],0.2 mg/dL
same,Ca,[4],10.7 mg/dL
same,Cl,[4],104 meq/L
same,DBIL,[4],0.018 mg/dL
same,GLC,[4],189.6 mg/dL
same,IP,[4],8.6 mg/dL
same,K,[4],4 meq/L
same,LDH,[4],58 IU/L
same,Na,[4],141.6 meq/L
same,PL,[4],111.4 mg/dL
same,RALB,[4],2.6 g/dL
same,TBIL,[4],0.03 mg/dL
same,TC,[4],59.2 mg/dL
same,TG,[4],37.6 mg/dL
same,TP,[4],5.3 g/dL
same,gamma-GTP,[4],1.2 IU/L
same,TERMINAL_BW,[5],203.1 g
same,APTT,[5],16 s
same,Bas,[5],0%
same,Eos,[5],0.8%
same,Fbg,[5],246.6 mg/dL
same,Ht,[5],38.5%
same,Lym,[5],76.8%
same,MCH,[5],21.8 pg
same,MCHC,[5],34.4%
same,MCV,[5],63.3 fL
same,Mono,[5],3%
same,Neu,[5],18.2%
same,PT,[5],12.6 s
same,Plat,[5],113.6 x10_4/uL
same,RBC,[5],607.8 x10_4/ul
same,Ret,[5],7.7%
same,WBC,[5],82.7 x10_2/uL
same,KIDNEY_L,[5],0.9 g
same,KIDNEY_R,[5],0.8 g
same,KIDNEY_TOTAL,[5],1.7 g
same,LIVER,[5],8.8 g
same,ALP,[5],1788.2 IU/L
same,ALT,[5],54.6 IU/L
same,AST,[5],82.6 IU/L
same,BUN,[5],11 mg/dL
same,CRE,[5],0.2 mg/dL
same,Ca,[5],11 mg/dL
same,Cl,[5],102.2 meq/L
same,DBIL,[5],0.046 mg/dL
same,GLC,[5],179.8 mg/dL
same,IP,[5],10.4 mg/dL
same,K,[5],4 meq/L
same,LDH,[5],69.8 IU/L
same,Na,[5],139.2 meq/L
same,PL,[5],156.6 mg/dL
same,RALB,[5],2.5 g/dL
same,TBIL,[5],0.058 mg/dL
same,TC,[5],80.8 mg/dL
same,TG,[5],120.2 mg/dL
same,TP,[5],5.4 g/dL
same,gamma-GTP,[5],1 IU/L
same,TERMINAL_BW,[6],202.6 g
same,APTT,[6],16 s
same,Bas,[6],0%
same,Eos,[6],0.6%
same,Fbg,[6],267.4 mg/dL
same,Ht,[6],39.4%
same,Lym,[6],74%
same,MCH,[6],21.5 pg
same,MCHC,[6],34.3%
same,MCV,[6],62.6 fL
same,Mono,[6],2.4%
same,Neu,[6],22.2%
same,PT,[6],12.1 s
same,Plat,[6],116.2 x10_4/uL
same,RBC,[6],628.6 x10_4/ul
same,Ret,[6],7.5%
same,WBC,[6],72.4 x10_2/uL
same,KIDNEY_L,[6],0.9 g
same,KIDNEY_R,[6],0.9 g
same,KIDNEY_TOTAL,[6],1.7 g
same,LIVER,[6],7.8 g
same,ALP,[6],1738.4 IU/L
same,ALT,[6],52 IU/L
same,AST,[6],81.4 IU/L
same,BUN,[6],9.4 mg/dL
same,CRE,[6],0.2 mg/dL
same,Ca,[6],10.6 mg/dL
same,Cl,[6],104.6 meq/L
same,DBIL,[6],0.036 mg/dL
same,GLC,[6],178.6 mg/dL
same,IP,[6],10.9 mg/dL
same,K,[6],4.3 meq/L
same,LDH,[6],54.6 IU/L
same,Na,[6],139.4 meq/L
same,PL,[6],152.4 mg/dL
same,RALB,[6],2.5 g/dL
same,TBIL,[6],0.052 mg/dL
same,TC,[6],80.4 mg/dL
same,TG,[6],105.4 mg/dL
same,TP,[6],5.3 g/dL
same,gamma-GTP,[6],1.6 IU/L
same,TERMINAL_BW,[7],203.7 g
same,APTT,[7],16.5 s
same,Bas,[7],0%
same,Eos,[7],0.4%
same,Fbg,[7],248 mg/dL
same,Ht,[7],40%
same,Lym,[7],79.6%
same,MCH,[7],21.8 pg
same,MCHC,[7],34.3%
same,MCV,[7],63.6 fL
same,Mono,[7],1.8%
same,Neu,[7],17.8%
same,PT,[7],12.4 s
same,Plat,[7],109.8 x10_4/uL
same,RBC,[7],628.8 x10_4/ul
same,Ret,[7],8.1%
same,WBC,[7],76 x10_2/uL
same,KIDNEY_L,[7],0.9 g
same,KIDNEY_R,[7],0.9 g
same,KIDNEY_TOTAL,[7],1.8 g
same,LIVER,[7],7.8 g
same,ALP,[7],2137.8 IU/L
same,ALT,[7],46 IU/L
same,AST,[7],74.2 IU/L
same,BUN,[7],9.6 mg/dL
same,CRE,[7],0.2 mg/dL
same,Ca,[7],10.5 mg/dL
same,Cl,[7],104.4 meq/L
same,DBIL,[7],0.028 mg/dL
same,GLC,[7],192 mg/dL
same,IP,[7],11 mg/dL
same,K,[7],4 meq/L
same,LDH,[7],58.8 IU/L
same,Na,[7],140.8 meq/L
same,PL,[7],115.2 mg/dL
same,RALB,[7],2.6 g/dL
same,TBIL,[7],0.04 mg/dL
same,TC,[7],59.4 mg/dL
same,TG,[7],85.2 mg/dL
same,TP,[7],5.4 g/dL
same,gamma-GTP,[7],1.2 IU/L
same,TERMINAL_BW,[8],210.5 g
same,APTT,[8],16.2 s
same,Bas,[8],0%
same,Eos,[8],1%
same,Fbg,[8],206.8 mg/dL
same,Ht,[8],38.4%
same,Lym,[8],76%
same,MCH,[8],21.8 pg
same,MCHC,[8],34.5%
same,MCV,[8],63.3 fL
same,Mono,[8],2.6%
same,Neu,[8],20.2%
same,PT,[8],13.1 s
same,Plat,[8],109.5 x10_4/uL
same,RBC,[8],607 x10_4/ul
same,Ret,[8],7.2%
same,WBC,[8],74.1 x10_2/uL
same,KIDNEY_L,[8],0.9 g
same,KIDNEY_R,[8],1 g
same,KIDNEY_TOTAL,[8],1.9 g
same,LIVER,[8],10.5 g
same,ALP,[8],1720.8 IU/L
same,ALT,[8],53.4 IU/L
same,AST,[8],77.4 IU/L
same,BUN,[8],14.2 mg/dL
same,CRE,[8],0.2 mg/dL
same,Ca,[8],10.7 mg/dL
same,Cl,[8],104.2 meq/L
same,DBIL,[8],0.018 mg/dL
same,GLC,[8],195.4 mg/dL
same,IP,[8],8.6 mg/dL
same,K,[8],4 meq/L
same,LDH,[8],60.4 IU/L
same,Na,[8],142.2 meq/L
same,PL,[8],96.4 mg/dL
same,RALB,[8],2.6 g/dL
same,TBIL,[8],0.026 mg/dL
same,TC,[8],50.2 mg/dL
same,TG,[8],31.4 mg/dL
same,TP,[8],5.2 g/dL
same,gamma-GTP,[8],1.2 IU/L
